Several values for one entry are separate records, joined by “and”; a condition that tells them apart may be missing. Identical values can stand only once. Ends that are not written are not given here.
Tests used:
[1] = Hormone determinations in serum; format: in vivo, cynomolgus monkeys (Macaca fascicularis); details: males
Description: (§1) Blood sampling. […] Blood samples were taken from a peripheral vein.

Haematology = format: in vivo, cynomolgus monkeys (Macaca fascicularis)
Description: as §1

[2] = cynomolgus monkey, in vivo
Description: Animals. […] Solvent was used as vehicle for the control group.
The animals used in this analysis were cynomolgus monkeys (Macaca fascicularis), supplied by Centre de Recherches Primatologiques, Port Louis, Mauritius. Two animals were used per group and sex. At the beginning of the treatment period, the animals were at least 24 months old, with a body weight of approximately 3 kg. Animals were kept under standard conditions for animal welfare. Animals were examined daily for mortality, food consumption and clinical observations. Body weight was recorded once per week.

Blood pressure = format: in vivo, cynomolgus monkeys (Macaca fascicularis); details: for Blood Pressure Difference: Week 2 vs Week-1; for Blood Pressure Week-1: before dosing
[3] = urine, females, day −8 (pre-dose)

## SVSEIQLLHDKGKHLASQERVEWLRKKLQDVHTA [PTS893, Leu8, Asp10, Lys11, Ala16, Gln18, Thr33, Ala34 human PTH 1-34 [hPTH(1-34)]]
[1]; day 7
  ACTH: 101 pg/mL and 88 pg/mL
  ALDOST: 380 pg/mL and 471 pg/mL
  C-PEPTI: 2.90 ng/mL and 4.40 ng/mL
  CORTISOL: 1156 nmol/L and 1432 nmol/L
  CT: 4.0 pg/mL and 7.8 pg/mL
  G.H.: 15.8 ng/mL and 11.6 ng/mL
  GASTRIN: 84 pg/mL and 98 pg/mL
  GLUCAG: 656 pg/mL and 497 pg/mL
  INSULIN: 22.0 mU/l and 38.0 mU/l
  IPH: 96 pg/mL and 62 pg/mL
  S.MED: 749 ng/mL and 828 ng/mL
  T3: 3.47 nmol/L and 2.76 nmol/L
  T4: 90 nmol/L and 80 nmol/L
  VD25-H: 62 nmol/L
[1]; day 13
  ACTH: 83 pg/mL and 91 pg/mL
  ALDOST: 592 pg/mL and 651 pg/mL
  C-PEPTI: 2.10 ng/mL and 2.40 ng/mL
  CORTISOL: 1299 nmol/L and 1212 nmol/L
  CT: 4.6 pg/mL and 7.6 pg/mL
  G.H.: 12.1 ng/mL and 14.0 ng/mL
  GASTRIN: 78 pg/mL and 94 pg/mL
  GLUCAG: 786 pg/mL and 739 pg/mL
  INSULIN: 14.0 mU/l and 10.0 mU/l
  IPH: 78 pg/mL and 55 pg/mL
  S.MED: 914 ng/mL and 867 ng/mL
  T3: 3.55 nmol/L and 2.43 nmol/L
  T4: 68 nmol/L and 56 nmol/L
  VD25-H: 50 nmol/L
[1]; day −6 (pre-dose)
  ALDOST: 265 pg/mL and 141 pg/mL
  CORTISOL: 1662 nmol/L and 1506 nmol/L
  CT: 6.1 pg/mL and 10.4 pg/mL
  G.H.: 13.4 ng/mL and 8.5 ng/mL
  GLUCAG: 858 pg/mL and 694 pg/mL
  INSULIN: 16.0 mU/l and 12.0 mU/l
  IPH: 123 pg/mL and 71 pg/mL
  PROLACT: 7.1 ng/mL and 7.5 ng/mL
  T3: 2.48 nmol/L and 1.38 nmol/L
  T4: 84 nmol/L and 59 nmol/L
  VD25-H: 77 nmol/L and 88 nmol/L
[1]; day −6 relative to start of dosing (pre-dose)
  ACTH: 96 pg/mL and 115 pg/mL
Haematology; females, d 7
  B: 0.06 G/L and 0.04 G/L
  L: 6.29 G/L and 5.87 G/L
  MCH: 18.9 pg and 19 pg
  MCV: 67 fL and 68 fL
  PCV: 0.41 l/l and 0.43 l/l
  PLAT: 525 G/L and 382 G/L
  RBC: 6.2 T/l and 6.4 T/l
  WBC: 18.4 G/l and 12.3 G/l
Haematology; females, d 13
  B: 0.03 G/L and 0.04 G/L
  E: 0.21 G/L and 0.29 G/L
  HB: 11.3 g/dL
  L: 5.81 G/L and 5.21 G/L
  MCH: 19.3 pg and 19.2 pg
  MCV: 67 fL and 66 fL
  PCV: 0.4 l/l and 0.39 l/l
  PLAT: 496 G/L and 309 G/L
  RBC: 5.9 T/l
  WBC: 13.2 G/l and 10.1 G/l
Haematology; females, d −8 (before dosing)
  L: 3.92 G/L and 4.4 G/L
  MCH: 19.3 pg
  MCV: 63 fL and 64 fL
  PCV: 0.44 l/l and 0.43 l/l
  RBC: 6.9 T/l and 6.7 T/l
  WBC: 10.1 G/l and 14.3 G/l
  monocyte count: 0.8 G/l and 0.54 G/l
Haematology; males, d 7
  B: 0.02 G/l and 0.03 G/l
  HB: 11.3 g/dL and 11.9 g/dL
  L: 5.91 G/l and 5.30 G/l
  MCH: 17.7 pg and 20.2 pg
  MCHC: 29.3 g/dL and 30.2 g/dL
  MCV: 60 fL and 67 fL
  PCV: 0.38 l/l and 0.40 l/l
  PLAT: 456 G/l and 589 G/l
  RBC: 6.4 T/l and 5.9 T/l
  WBC: 8.4 G/l and 15.0 G/l
Haematology; males, d 13
  B: 0.04 G/l and 0.03 G/l
  HB: 11.7 g/dL and 11.8 g/dL
  L: 5.37 G/l and 4.86 G/l
  M: 0.27 G/l and 0.46 G/l
  MCH: 17.3 pg and 20.3 pg
  MCHC: 27.5 g/dL and 29.2 g/dL
  MCV: 63 fL and 70 fL
  PCV: 0.43 l/l and 0.41 l/l
  PLAT: 330 G/l and 452 G/l
  RBC: 6.8 T/l and 5.8 T/l
  WBC: 8.8 G/l and 11.9 G/l
Haematology; males, d −6 (before dosing)
  HB: 13.6 g/dL and 13.2 g/dL
  L: 5.07 G/l and 3.99 G/l
  MCH: 18.0 pg and 20.4 pg
  MCHC: 31.5 g/dL and 33.1 g/dL
  MCV: 57 fL and 62 fL
  PCV: 0.43 l/l and 0.40 l/l
  PLAT: 325 G/l and 459 G/l
  RBC: 7.6 T/l and 6.5 T/l
  WBC: 10.4 G/l and 9.1 G/l
[2]
  Food Consumption Avg., Both animals: 89.6
Urinary analysis; males, day 13
  Ca2+ (urine): 7.55 mmol/L and 13.10 mmol/L
  I.PHOS (urine): 0.10 mmol/L and 0.17 mmol/L
  K+ (urine): 107 mmol/L and 69 mmol/L
  LDH (urine): 14.0 IU/L and 19.0 IU/L
  Mg2+ (urine): 8.70 mmol/L and 5.25 mmol/L
  NAG (urine): 2.9 IU/l and 2.6 IU/l
Urinary analysis; males, day −5 (before dosing)
  CREAT (urine): 16160 µmol/L and 16120 µmol/L
Urinary analysis; males, day −6 (before dosing)
  CREAT (urine): 16160 µmol/L and 9940 µmol/L
  Ca2+ (urine): 5.10 mmol/L and 3.50 mmol/L
  K+ (urine): 86 mmol/L and 125 mmol/L
  LDH (urine): 7.0 IU/L and 9.0 IU/L
Urinary analysis; urine, females, day 13
  CREAT: 5620 µmol/L and 8060 µmol/L
  Ca2+: 20.05 mmol/L and 12.35 mmol/L
  Cl−: 101 mmol/L and 133 mmol/L
  LDH: 10.0 IU/L and 9.0 IU/L
  Mg2+: 6.90 mmol/L and 5.90 mmol/L
Urinary analysis; urine, females, day 13 of dosing
  VOLUME: 52 mL and 42 mL
Urinary analysis; [3]
  CREAT: 19160 µmol/L and 14060 µmol/L
  Ca2+: 11.50 mmol/L and 6.60 mmol/L
  K+: 302 mmol/L and 164 mmol/L
  LDH: 11.0 IU/L and 18.0 IU/L
  Mg2+: 7.35 mmol/L and 4.00 mmol/L
  Na+: 145 mmol/L and 118 mmol/L
Blood pressure; Female, first line per animal
  Blood Pressure Week 2: 70 mmHg and 87 mmHg
  Blood Pressure Difference: −22 mmHg and 9 mmHg
  Blood Pressure Week-1: 92 mmHg and 78 mmHg
Blood pressure; Female, second line per animal
  Blood Pressure Week 2: 42 mmHg and 28 mmHg
  Blood Pressure Difference: −1 mmHg and 4 mmHg
  Blood Pressure Week-1: 43 mmHg and 24 mmHg
Blood pressure; Male, first line per animal
  Blood Pressure Week 2: 87 mmHg and 101 mmHg
  Blood Pressure Difference: 11 mmHg and −5 mmHg
  Blood Pressure Week-1: 76 mmHg and 106 mmHg
Blood pressure; Male, second line per animal
  Blood Pressure Week 2: 22 mmHg and 33 mmHg
  Blood Pressure Difference: 4 mmHg and −20 mmHg
  Blood Pressure Week-1: 18 mmHg and 53 mmHg

— patent US20070099828A1, “BIOMARKERS FOR THE EFFICACY OF CALCITONIN AND PARATHYROID HORMONE TREATMENT” (priority 2003, published 2007)
